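Values below derive from 48-hour exposures of cells grown in 96-well plates, with endpoints linearly interpolated between the two concentrations bracketing the appropriate inhibition level. GI50: concentration for 50% inhibition of growth.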 Active and inactive are the calls of the source. Rule as the data show it: active = GI50 up to about 1.1 µM and inactive = higher.
Experiments:
Experiment in all cases: NCI-60 cell line screen, 48 h
786-0 = test system: 786-0
A549 = test system: A549
ACHN = test system: ACHN
CCRF-CEM = test system: CCRF-CEM
COLO 205 = test system: COLO 205
DLD-1 = test system: DLD-1
DMS-273 = test system: DMS-273
EKVX = test system: EKVX
HCC 2998 = test system: HCC 2998
HCT-116 = test system: HCT-116
HCT-15 = test system: HCT-15
HL-60 = test system: HL-60
HOP-62 = test system: HOP-62
IGROV-1 = test system: IGROV-1
K562 = test system: K562
KM-20L2 = test system: KM-20L2
KM12 = test system: KM12
LOX IMVI = test system: LOX IMVI
LXFL 529 = test system: LXFL 529
M14 = test system: M14
M19-MEL = test system: M19-MEL
MOLT-4 = test system: MOLT-4
Malme-3M = test system: Malme-3M
NCI-H23 = test system: NCI-H23
NCI-H460 = test system: NCI-H460
NCI-H522 = test system: NCI-H522
OVCAR-3 = test system: OVCAR-3
OVCAR-8 = test system: OVCAR-8
RPMI-8226 = test system: RPMI-8226
RXF 393 = test system: RXF 393
SF-268 = test system: SF-268
SF-295 = test system: SF-295
SF-539 = test system: SF-539
SK-MEL-28 = test system: SK-MEL-28
SK-OV-3 = test system: SK-OV-3
SN12C = test system: SN12C
SNB-19 = test system: SNB-19
SNB-75 = test system: SNB-75
SNB-78 = test system: SNB-78
SR = test system: SR
SW-620 = test system: SW-620
TK-10 = test system: TK-10
U-251 = test system: U-251
UACC-257 = test system: UACC-257
UACC-62 = test system: UACC-62
UO-31 = test system: UO-31
A498 = test system: A498
DMS-114 = test system: DMS-114
HOP-92 = test system: HOP-92
HT-29 = test system: HT-29
OVCAR-4 = test system: OVCAR-4
OVCAR-5 = test system: OVCAR-5
SK-MEL-2 = test system: SK-MEL-2

C[C@]12CC[C@@H]3c4ccccc4CC[C@H]3[C@@H]1CC[C@@H]2O
GI50 (786-0): > 100 µM (inactive) | GI50 (A549): 99.3 µM (inactive) | GI50 (ACHN): > 100 µM (inactive) | GI50 (CCRF-CEM): 62.5 µM (inactive) | GI50 (COLO 205): 73.8 µM (inactive) | GI50 (DLD-1): 72.6 µM (inactive) | GI50 (DMS-273): 51.1 µM (inactive) | GI50 (EKVX): 80.5 µM (inactive) | GI50 (HCC 2998): 61.7 µM (inactive) | GI50 (HCT-116): > 100 µM (inactive) | GI50 (HCT-15): 50.2 µM | GI50 (HL-60): > 10 µM (inactive) | GI50 (HOP-62): > 100 µM (inactive) | GI50 (IGROV-1): > 100 µM (inactive) | GI50 (K562): 32.1 µM (inactive) | GI50 (KM-20L2): 33.8 µM (inactive) | GI50 (KM12): 68.7 µM (inactive) | GI50 (LOX IMVI): 77.4 µM (inactive) | GI50 (LXFL 529): > 100 µM (inactive) | GI50 (M14): > 100 µM (inactive) | GI50 (M19-MEL): 78 µM (inactive) | GI50 (MOLT-4): 45.5 µM (inactive) | GI50 (Malme-3M): 44.2 µM (inactive) | GI50 (NCI-H23): > 100 µM (inactive) | GI50 (NCI-H460): 38.5 µM (inactive) | GI50 (NCI-H522): 49.2 µM (inactive) | GI50 (OVCAR-3): > 100 µM (inactive) | GI50 (OVCAR-8): > 100 µM (inactive) | GI50 (RPMI-8226): 53.2 µM (inactive) | GI50 (RXF 393): 27.6 µM (inactive) | GI50 (SF-268): > 100 µM (inactive) | GI50 (SF-295): > 100 µM (inactive) | GI50 (SF-539): 43.1 µM (inactive) | GI50 (SK-MEL-28): > 100 µM (inactive) | GI50 (SK-OV-3): > 100 µM (inactive) | GI50 (SN12C): 83 µM (inactive) | GI50 (SNB-19): > 100 µM (inactive) | GI50 (SNB-75): 54.7 µM (inactive) | GI50 (SNB-78): > 100 µM (inactive) | GI50 (SR): 56.1 µM (inactive) | GI50 (SW-620): > 100 µM (inactive) | GI50 (TK-10): > 100 µM (inactive) | GI50 (U-251): > 100 µM (inactive) | GI50 (UACC-257): > 100 µM (inactive) | GI50 (UACC-62): 42.6 µM (inactive) | GI50 (UO-31): 39.7 µM (inactive)

COc1ccc2c(c1)CC[C@@H]1C2CC[C@]2(C)C(=O)N(CCN3CCCC3)C(=O)CC12 (stereo not given in full)
GI50 (786-0): 18.3 µM (inactive) | GI50 (A498): 27.9 µM (inactive) | GI50 (ACHN): 59.3 µM (inactive) | GI50 (COLO 205): 17.7 µM (inactive) | GI50 (DMS-114): 26.5 µM (inactive) | GI50 (HL-60): 18.7 µM (inactive) | GI50 (HOP-62): 28.3 µM (inactive) | GI50 (HOP-92): 17.8 µM (inactive) | GI50 (HT-29): 17.4 µM (inactive) | GI50 (IGROV-1): 44.7 µM (inactive) | GI50 (K562): 20.4 µM (inactive) | GI50 (KM-20L2): 21.4 µM (inactive) | GI50 (KM12): 29.4 µM (inactive) | GI50 (LXFL 529): 26.4 µM (inactive) | GI50 (M14): 15.8 µM (inactive) | GI50 (M19-MEL): 18.2 µM (inactive) | GI50 (MOLT-4): 17.3 µM (inactive) | GI50 (Malme-3M): 17 µM (inactive) | GI50 (NCI-H23): 49.7 µM (inactive) | GI50 (NCI-H460): 36.6 µM (inactive) | GI50 (NCI-H522): 23.1 µM (inactive) | GI50 (OVCAR-3): 27.5 µM (inactive) | GI50 (OVCAR-4): 84.3 µM (inactive) | GI50 (OVCAR-5): 26.1 µM (inactive) | GI50 (RPMI-8226): 15.3 µM (inactive) | GI50 (RXF 393): 34 µM (inactive) | GI50 (SF-268): 35.1 µM (inactive) | GI50 (SF-295): 19.1 µM (inactive) | GI50 (SK-MEL-28): 19.5 µM (inactive) | GI50 (SK-MEL-2): 17.8 µM (inactive) | GI50 (SK-OV-3): 66.7 µM (inactive) | GI50 (SNB-19): > 100 µM (inactive) | GI50 (SNB-75): 15.1 µM (inactive) | GI50 (SNB-78): 31.4 µM (inactive) | GI50 (SR): 31 µM (inactive) | GI50 (U-251): 43.9 µM (inactive) | GI50 (UACC-257): 18.5 µM (inactive) | GI50 (UACC-62): 18.2 µM (inactive) | GI50 (UO-31): 17.9 µM (inactive)

Source: ChEMBL document CHEMBL1201862, “PubChem BioAssay data set” (2004)
